According to PubChem BioAssay (NCI):
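Five concentrations, 48 hours, 96-well plates. At the GI50, growth is halved. TGI: concentration producing complete growth inhibition.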

What was measured:
Experiment in all cases: inhibition of tumour cell growth, NCI panel, 48 h
M14 melanoma = tested on: M14 melanoma
OVCAR-4 ovarian = tested on: OVCAR-4 ovarian
DMS 273 small cell lung = tested on: DMS 273 small cell lung
HT29 colon = tested on: HT29 colon
SK-OV-3 ovarian = tested on: SK-OV-3 ovarian
NCI-H522 lung = tested on: NCI-H522 lung
CCRF-CEM leukemia = tested on: CCRF-CEM leukemia
EKVX NSCLC = tested on: EKVX NSCLC
SK-MEL-2 melanoma = tested on: SK-MEL-2 melanoma
ACHN renal = tested on: ACHN renal
786-0 renal = tested on: 786-0 renal
SN12C renal = tested on: SN12C renal
UO-31 renal = tested on: UO-31 renal
TK-10 renal = tested on: TK-10 renal
LXFL 529 NSCLC = tested on: LXFL 529 NSCLC
SK-MEL-28 melanoma = tested on: SK-MEL-28 melanoma
K-562 leukemia = tested on: K-562 leukemia
RXF-631 renal = tested on: RXF-631 renal
CAKI-1 renal = tested on: CAKI-1 renal
DMS 114 small cell lung = tested on: DMS 114 small cell lung
IGROV1 ovarian = tested on: IGROV1 ovarian
SNB-19 CNS = tested on: SNB-19 CNS
SK-MEL-5 melanoma = tested on: SK-MEL-5 melanoma
KM12 colon = tested on: KM12 colon
HOP-92 NSCLC = tested on: HOP-92 NSCLC
SF-295 CNS = tested on: SF-295 CNS
OVCAR-8 ovarian = tested on: OVCAR-8 ovarian
SF-268 CNS = tested on: SF-268 CNS
KM20L2 colon = tested on: KM20L2 colon
SNB-75 CNS = tested on: SNB-75 CNS
OVCAR-5 ovarian = tested on: OVCAR-5 ovarian
LOX IMVI melanoma = tested on: LOX IMVI melanoma
HOP-18 NSCLC = tested on: HOP-18 NSCLC
XF 498 CNS = tested on: XF 498 CNS
U251 CNS = tested on: U251 CNS
OVCAR-3 ovarian = tested on: OVCAR-3 ovarian
UACC-257 melanoma = tested on: UACC-257 melanoma
HCT-116 colon = tested on: HCT-116 colon
UACC-62 melanoma = tested on: UACC-62 melanoma
DLD-1 colon = tested on: DLD-1 colon
HL-60(TB) leukemia = tested on: HL-60(TB) leukemia
MOLT-4 leukemia = tested on: MOLT-4 leukemia
SNB-78 CNS = tested on: SNB-78 CNS
MALME-3M melanoma = tested on: MALME-3M melanoma
RPMI-8226 leukemia = tested on: RPMI-8226 leukemia
SW-620 colon = tested on: SW-620 colon
HCC-2998 colon = tested on: HCC-2998 colon
NCI-H460 lung = tested on: NCI-H460 lung
M19-MEL melanoma = tested on: M19-MEL melanoma
SF-539 CNS = tested on: SF-539 CNS
A549 NSCLC = tested on: A549 NSCLC
HCT-15 colon = tested on: HCT-15 colon
RXF 393 renal = tested on: RXF 393 renal
HOP-62 NSCLC = tested on: HOP-62 NSCLC
COLO 205 colon = tested on: COLO 205 colon
NCI-H23 lung = tested on: NCI-H23 lung
NCI-H226 lung = tested on: NCI-H226 lung

`C[PH+](C)C.C[PH+](C)C.[Au]` showed a TGI (M14 melanoma) of 7.45 µM, a TGI (OVCAR-4 ovarian) of 24.5 µM and a TGI (DMS 273 small cell lung) of 68.7 µM. The TGI (HT29 colon) was 20.8 µM, the TGI (SK-OV-3 ovarian) was over 90.2 µM and the GI50 (NCI-H522 lung) was 0.247 µM. It also gave a TGI (NCI-H522 lung) of 0.771 µM, a TGI (CCRF-CEM leukemia) of 4.98 µM and a TGI (EKVX NSCLC) of 12.3 µM. The TGI (SK-MEL-2 melanoma) was 13.6 µM, the TGI (ACHN renal) was over 68.4 µM and the TGI (786-0 renal) was 10.9 µM. It also gave a TGI (SN12C renal) of 25.4 µM, a TGI (UO-31 renal) of 54.8 µM and a TGI (TK-10 renal) of 35.4 µM. For the same compound, the TGI (LXFL 529 NSCLC) was 3.48 µM, the TGI (SK-MEL-28 melanoma) was 8.29 µM and the TGI (K-562 leukemia) was 10.6 µM. For the same compound, the TGI (RXF-631 renal) was 13.1 µM, the TGI (CAKI-1 renal) was 32.8 µM and the TGI (DMS 114 small cell lung) was 15.6 µM. For the same compound, the TGI (IGROV1 ovarian) was 35.7 µM, the TGI (SNB-19 CNS) was 21.2 µM and the TGI (SK-MEL-5 melanoma) was 13.4 µM. It also gave a TGI (KM12 colon) of 41.9 µM, a TGI (HOP-92 NSCLC) of 6.58 µM and a TGI (SF-295 CNS) of over 56.7 µM. For the same compound, the TGI (OVCAR-8 ovarian) was 19 µM, the TGI (SF-268 CNS) was 15.2 µM and the TGI (KM20L2 colon) was 47.8 µM. The TGI (SNB-75 CNS) was 30.1 µM, the TGI (OVCAR-5 ovarian) was 24.9 µM and the TGI (LOX IMVI melanoma) was 18 µM. For the same compound, the TGI (HOP-18 NSCLC) was 10.4 µM, the TGI (XF 498 CNS) was 7.8 µM and the TGI (U251 CNS) was 15.2 µM. For the same compound, the TGI (OVCAR-3 ovarian) was 15.7 µM, the TGI (UACC-257 melanoma) was 29.3 µM and the TGI (HCT-116 colon) was 27.7 µM. The TGI (UACC-62 melanoma) was 18.2 µM, the TGI (DLD-1 colon) was 11.2 µM and the TGI (HL-60(TB) leukemia) was 2.51 µM. For the same compound, the TGI (MOLT-4 leukemia) was 13.9 µM, the TGI (SNB-78 CNS) was 52.6 µM and the TGI (MALME-3M melanoma) was 4.02 µM. For the same compound, the TGI (RPMI-8226 leukemia) was 10.1 µM, the TGI (SW-620 colon) was 9.22 µM and the TGI (HCC-2998 colon) was over 60.6 µM. The TGI (NCI-H460 lung) was over 100 µM, the TGI (M19-MEL melanoma) was 28.1 µM and the TGI (SF-539 CNS) was 24.6 µM. For the same compound, the TGI (A549 NSCLC) was over 100 µM, the TGI (HCT-15 colon) was 6.21 µM and the TGI (RXF 393 renal) was 2.89 µM. For the same compound, the TGI (HOP-62 NSCLC) was 98 µM, the TGI (COLO 205 colon) was over 34.2 µM and the TGI (NCI-H23 lung) was 11.2 µM. For the same compound, the TGI (NCI-H226 lung) was 34.4 µM.
